Measurements: patent publication US9522888B2, “Substituted bicyclic compounds” (BRISTOL-MYERS SQUIBB COMPANY, priority 2014, dated 2016)
Read-outs that look alike come from different tables or passages of the source.

Tests used:
[1] = molecular target: human S1P1 (Homo sapiens (Human), UniProt P21453); assay: S1P1 binding assay (33P-S1P radioligand competition, CHO cell membranes)
Method: Membranes were prepared from CHO cells expressing human S1P1. Cells pellets (1×10^9 cells/pellet) were suspended in buffer containing 20 mM HEPES (4-(2-hydroxyethyl)-1-piperazineethanesulfonic acid), pH 7.5, 50 mM NaCl, 2 mM EDTA (Ethylenediaminetetraacetic acid) and Protease Inhibitor cocktail (Roche), and disrupted on ice using the Polytron homogenizer. The homogenate was centrifuged at 20,000 rpm (48,000 g) and the supernatant was discarded. The membrane pellets were resuspended in buffer containing 50 mM HEPES, pH 7.5, 100 mM NaCl, 1 mM MgCl2, 2 mM EDTA and stored in aliquots at −80° C. after protein concentration determination.

[2] = molecular target: S1P1 (membranes prepared from S1P1/CHO cells) (Homo sapiens (Human), UniProt P21453); assay: Receptor [35S] GTPγS binding assay (S1P1 GTPγS); format: biochemical; settings: for activity as an agonist of S1P1: GTPγS S1P1 binding assay, result in words
Sequence of S1P1 (membranes prepared from S1P1/CHO cells) (P21453 whole entry): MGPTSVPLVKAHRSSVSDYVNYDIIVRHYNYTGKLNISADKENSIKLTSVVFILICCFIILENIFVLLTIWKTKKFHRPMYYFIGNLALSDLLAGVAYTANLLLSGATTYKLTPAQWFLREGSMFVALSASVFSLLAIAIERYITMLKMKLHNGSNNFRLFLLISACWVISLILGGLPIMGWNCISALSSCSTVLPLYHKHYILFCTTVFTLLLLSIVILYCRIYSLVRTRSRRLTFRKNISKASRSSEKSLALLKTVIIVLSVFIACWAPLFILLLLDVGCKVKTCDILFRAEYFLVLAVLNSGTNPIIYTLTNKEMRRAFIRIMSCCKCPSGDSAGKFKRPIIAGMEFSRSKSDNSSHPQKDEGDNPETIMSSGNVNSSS
Method: (§1) Receptor [^35S] GTPγS Binding Assays: (S1P1 GTPγS/S1P3 GTPγS)
Compounds were loaded in a 384 Falcon v-bottom plate (0.5 μl/well in a 11 point, 3-fold dilution). Membranes prepared from S1P1/CHO cells or EDG3-Gal5-bla HEK293T cells (EDG3 equivalent S1P3) were added to the compound plate (40 μl/well, final protein 3 μg/well) with MULTIDROP®. [^35S] GTP (1250 Ci/mmol, Perkin Elmer) was diluted in assay buffer: 20 mM HEPES, pH7.5, 10 mM MgCl2, 150 mM NaCl, 1 mM EGTA (ethylene glycol tetraacetic acid), 1 mM DTT (Dithiothreitol), 10 μM GDP, 0.1% fatty acid free BSA, and 10 μg/ml Saponin to 0.4 nM. 40 μl of the [^35S] GTP solution was added to the compound plate with a final concentration of 0.2 nM. The reaction was kept at room temperature for 45 min. At the end of incubation, all the mixtures in the compound plate were transferred to Millipore 384-well FB filter plates via the VELOCITY11® Vprep liquid handler. The filter plate was washed with water 4 times by using the manifold Embla plate washer and dried at 60° C. for 45 min. MicroScint 20 scintillation fluid (30 μl) was added to each well for counting on the Packard TOPCOUNT®. […]

[3] = molecular target: S1P3 (membranes prepared from EDG3-Gal5-bla HEK293T cells) (Homo sapiens (Human), UniProt Q99500); assay: Receptor [35S] GTPγS binding assay (S1P3 GTPγS); format: biochemical
Sequence of S1P3 (membranes prepared from EDG3-Gal5-bla HEK293T cells) (Q99500 whole entry): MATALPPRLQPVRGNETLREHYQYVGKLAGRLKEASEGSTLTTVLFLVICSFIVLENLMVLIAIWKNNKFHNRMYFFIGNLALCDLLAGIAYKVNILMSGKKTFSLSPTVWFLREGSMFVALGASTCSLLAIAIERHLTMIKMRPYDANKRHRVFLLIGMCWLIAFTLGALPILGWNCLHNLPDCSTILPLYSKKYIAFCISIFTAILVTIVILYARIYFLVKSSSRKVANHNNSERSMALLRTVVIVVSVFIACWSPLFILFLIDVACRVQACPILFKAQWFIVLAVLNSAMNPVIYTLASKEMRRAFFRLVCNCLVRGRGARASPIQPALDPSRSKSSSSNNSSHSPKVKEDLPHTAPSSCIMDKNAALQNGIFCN
Method: as §1
Compounds were loaded in a 384 Falcon v-bottom plate (0.5 μl/well in a 11 point, 3-fold dilution). Membranes prepared from S1P1/CHO cells or EDG3-Gal5-bla HEK293T cells (EDG3 equivalent S1P3) were added to the compound plate (40 μl/well, final protein 3 μg/well) with MULTIDROP®. [^35S] GTP (1250 Ci/mmol, Perkin Elmer) was diluted in assay buffer: 20 mM HEPES, pH7.5, 10 mM MgCl2, 150 mM NaCl, 1 mM EGTA (ethylene glycol tetraacetic acid), 1 mM DTT (Dithiothreitol), 10 μM GDP, 0.1% fatty acid free BSA, and 10 μg/ml Saponin to 0.4 nM. 40 μl of the [^35S] GTP solution was added to the compound plate with a final concentration of 0.2 nM. The reaction was kept at room temperature for 45 min. At the end of incubation, all the mixtures in the compound plate were transferred to Millipore 384-well FB filter plates via the VELOCITY11® Vprep liquid handler. The filter plate was washed with water 4 times by using the manifold Embla plate washer and dried at 60° C. for 45 min. MicroScint 20 scintillation fluid (30 μl) was added to each well for counting on the Packard TOPCOUNT®.
A smaller value for GTPγS S1P1 EC50 value indicated greater activity for the compound in the GTPγS S1P1 binding assay. A larger value for the GTPγS S1P3 EC50 value indicated less activity in the GTPγS S1P3 binding assay. […] Thus the compounds of the present invention may be used in treating, preventing, or curing various S1P1 receptor-related conditions while reducing or minimizing the side effects due to S1P3 activity. The selectivity of the compounds of the present invention indicate their potential use in treating, preventing, or curing autoimmune and inflammatory diseases such as multiple sclerosis, rheumatoid arthritis, inflammatory bowel disease, lupus, psoriasis, or vascular diseases, while reducing or minimizing possible side effects due to S1P3 activity. Other potential uses of the compounds of the present invention include minimizing or reducing rejection of transplanted organs, while reducing or minimizing side effects due to S1P3 activity.

[4] = molecular target: hS1P1/CHO cells (Homo sapiens (Human), UniProt P21453); assay: hS1P1 ERK phosphorylation (S1P1 pERK); format: cell-based; settings: phosphate examples
Sequence of hS1P1/CHO cells (P21453 whole entry): as the sequence (P21453 whole entry) above
Method: hS1P1 ERK Phosphorylation (S1P1 pERK)
hS1P1/CHO cells were plated into BD Amine 384-well plates the day before the assay. On the day of the assay, growth medium was removed and replaced with serum-free medium (Ham's F-12 Invitrogen) and incubated for 2 hours. Test compounds pre-diluted in HBSS (Gibco)/20 mM HEPES (Gibco) were transferred to the cell plates and incubated for 7 minutes at 37° C. Cells were lysed in lysis buffer (Perkin Elmer) and phospho-ERK was measured using the SureFire pERK kit (Perkin Elmer) as described by the manufacturer. Data was plotted as percentage activation of the test compound relative to the efficacy of 10 μM S1P.

[5] = 33P-S1P competition, membranes of CHO cells expressing human S1P1, read-out: S1P1 Binding IC50
[6] = [35S]GTPγS, S1P1/CHO cell membranes, read-out: GTPγS S1P1 EC50
[7] = [35S]GTPγS, EDG3-Gal5-bla HEK293T cell membranes, read-out: GTPγS S1P3 EC50
[8] = phosphate examples, read-out: S1P1 Binding
[9] = phosphate examples, read-out: S1P1 GTPγS
[10] = phosphate examples, read-out: S1P3 GTPγS

Sequence of human S1P1 (P21453 whole entry): as above

EC50 [3, 7]	IC50 [1, 8]	EC50 [2, 9]	EC50 [3, 10]	SMILES	other results
> 2 µM				COCCCCCC1CCc2cc([C@H]3CC[C@](N)(COP(=O)(O)O)C3)ccc2C1 (single isomer, unassigned) [Example 689]	IC50 [1, 5]: 0.0017 µM; activity as an agonist of S1P1 [2]: possessed activity as an agonist of S1P1; EC50 [2, 6]: 0.0057 µM; selectivity over S1P3 ([3]; GTPγS S1P1 versus GTPγS S1P3, result in words): selective over S1P3; EC50 ([3]; membranes prepared from EDG3-Gal5-bla HEK293T cells, read-out: GTPγS S1P3 EC50): > 2 µM
> 0.625 µM				COCCCCCC1CCc2cc([C@H]3CC[C@](N)(COP(=O)(O)O)C3)ccc2C1 (single isomer, unassigned) [Example 690]	IC50 [1, 5]: 0.003 µM; EC50 [2, 6]: 0.0214 µM
> 0.625 µM				COCCCCCC1CCc2cc([C@@H]3CC[C@](N)(COP(=O)(O)O)C3)ccc2C1 (single isomer, unassigned) [Example 692]	IC50 [1, 5]: 0.0023 µM
> 4.16 µM				COc1cccc(CCC2CCc3cc([C@H]4CC[C@](N)(COP(=O)(O)O)C4)ccc3C2)c1 (single isomer, unassigned) [Example 693]	
> 1.25 µM				COc1cccc(CCC2CCc3cc([C@H]4CC[C@](N)(COP(=O)(O)O)C4)ccc3C2)c1 (single isomer, unassigned) [Example 694]	EC50 [2, 6]: 0.0386 µM
> 0.625 µM				CCOCCCC1CCc2cc([C@H]3CC[C@](N)(COP(=O)(O)O)C3)ccc2C1 (single isomer, unassigned) [Example 695]	
> 1 µM				CCOCCCC1CCc2cc([C@H]3CC[C@](N)(COP(=O)(O)O)C3)ccc2C1 (single isomer, unassigned) [Example 696]	EC50 [2, 6]: 0.0012 µM
> 1 µM				COc1ccccc1CC[C@@H]1CCc2cc([C@H]3CC[C@](N)(COP(=O)(O)O)C3)ccc2C1 (single isomer, unassigned) [Example 697]	
> 0.625 µM				COc1ccccc1CCC1CCc2cc(C3CC[C@](N)(COP(=O)(O)O)C3)ccc2C1 (single isomer, unassigned) [Example 698]	
> 1.25 µM				COc1cccc(OCC2CCc3cc([C@@H]4CC[C@](N)(COP(=O)(O)O)C4)ccc3C2)c1 (single isomer, unassigned) [Example 701]	
> 0.625 µM				COc1cccc(OCC2CCc3cc([C@@H]4CC[C@](N)(COP(=O)(O)O)C4)ccc3C2)c1 (single isomer, unassigned) [Example 702]	
	0.01 to 0.1 µM	0.01 to 0.1 µM	> 0.625 µM	CC(C)=CCOCCO[C@@H]1CCc2cc(C3CCC(N)(COP(=O)(O)O)C3)ccc2C1 (single isomer, unassigned) [compound 580]	
		0.01 to 0.1 µM	> 0.625 µM	N[C@@]1(COP(=O)(O)O)CC[C@@H](c2ccc3c(c2)CC[C@H](OCCOC2CCCCC2)C3)C1 (single isomer, unassigned) [compound 585]	
				COc1ccccc1CCC1CCc2cc([C@H]3CC[C@](N)(COP(=O)(O)O)C3)ccc2C1 (some centres unmarked) [Example 697]	activity as an agonist of S1P1 [2]: possessed activity as an agonist of S1P1
> 0.625 µM				COc1ccccc1CC[C@@H]1CCc2cc([C@@H]3CC[C@](N)(COP(=O)(O)O)C3)ccc2C1 [Example 699]	
	1 to 10 µM		> 0.625 µM	CCCCCCN1CCc2cc([C@H]3CC[C@](N)(COP(=O)(O)O)C3)ccc2C1=O [compound 416]	
			> 0.625 µM	CCCCCCC1CCc2cc([C@H]3CC[C@](N)(COP(=O)(O)O)C3)ccc2O1 (some centres unmarked) [compound 419]	EC50 [4]: 0.01 to 0.1 µM

EC50 [3, 7]	IC50 [1, 8]	EC50 [2, 9]	EC50 [3, 10]	SMILES	other results
	0.01 to 0.1 µM		> 0.625 µM	CCCCCCO[C@@H]1CCc2cc([C@@H]3CC[C@](N)(COP(=O)(O)O)C3)ccc2C1 [compound 435]	
		< 0.01 µM		COc1ccc(F)c(OC[C@@H]2CCc3cc([C@H]4CC[C@](N)(COP(=O)(O)O)C4)ccc3C2)c1 [compound 486]	EC50 [4]: 0.01 to 0.1 µM
		< 0.01 µM	> 0.625 µM	CC(C)CN(C)C(=O)c1cccc(OC[C@@H]2CCc3cc([C@H]4CC[C@](N)(COP(=O)(O)O)C4)ccc3C2)c1 [compound 500]	EC50 [4]: < 0.01 µM
		< 0.01 µM	> 0.625 µM	CC(C)COCC[C@@H]1CCc2cc([C@H]3CC[C@](N)(COP(=O)(O)O)C3)ccc2C1 [compound 542]	EC50 [4]: < 0.01 µM
		< 0.01 µM	> 0.625 µM	CC(C)COCC[C@H]1CCc2cc([C@H]3CC[C@](N)(COP(=O)(O)O)C3)ccc2C1 [compound 543]	EC50 [4]: < 0.01 µM
		0.01 to 0.1 µM	> 0.625 µM	COc1ccc(C[C@@H]2CCc3cc([C@H]4CC[C@](N)(COP(=O)(O)O)C4)ccc3C2)cc1F [compound 554]	EC50 [4]: 0.01 to 0.1 µM
	< 0.01 µM	< 0.01 µM	> 0.625 µM	N[C@@]1(COP(=O)(O)O)CC[C@@H](c2ccc3c(c2)CC[C@H](OCCOCc2ccccc2)C3)C1 [compound 581]	
	< 0.01 µM	< 0.01 µM	> 0.625 µM	C=CCCOCCO[C@H]1CCc2cc([C@@H]3CC[C@@](N)(COP(=O)(O)O)C3)ccc2C1 [compound 584]	
	1 to 10 µM	0.01 to 0.1 µM	> 0.625 µM	CCCCCCC1CCc2nc([C@@H]3CC[C@@](N)(COP(=O)(O)O)C3)ccc2C1 (some centres unmarked) [compound 612]	
	1 to 10 µM	0.1 to 1 µM	> 0.625 µM	N[C@]1(COP(=O)(O)O)CCC(c2ccc3c(c2)CN(CCCc2ccccc2)C3=O)C1 (some centres unmarked) [compound 614]	
	0.1 to 1 µM	0.1 to 1 µM	> 0.625 µM	CC1(C)c2cc([C@@H]3CC[C@](N)(COP(=O)(O)O)C3)ccc2C(=O)N1CCCc1ccccc1 [compound 615]	
	0.1 to 1 µM		> 0.625 µM	CCCCCC(=O)N1CCc2cc([C@H]3CC[C@@](N)(COP(=O)(O)O)C3)ccc2C1 [compound 617]	
	0.01 to 0.1 µM	< 0.01 µM	> 0.625 µM	CCCCCC[C@H]1CCc2cc([C@H]3CC[C@](N)(COP(=O)(O)O)C3)c(I)cc2C1 [compound 620]	
	< 0.01 µM	< 0.01 µM	> 0.625 µM	CCCCCC[C@H]1CCc2cc([C@H]3CC[C@](N)(COP(=O)(O)O)C3)c(C)cc2C1 [compound 622]	
	< 0.01 µM	< 0.01 µM	> 0.625 µM	CCCCCC(=O)OC1CCc2cc([C@H]3CC[C@](N)(COP(=O)(O)O)C3)ccc2C1 (some centres unmarked) [compound 623]	
	0.1 to 1 µM	0.1 to 1 µM	> 0.625 µM	CC(C)CO/N=C1/CCc2cc([C@H]3CC[C@](N)(COP(=O)(O)O)C3)ccc2C1 [compound 666]	
